Measurements published in patent publication US6753296B1, “Method for improving plant growth” (priority 2002, dated 2004).

What was measured:
Format in all cases: in vivo
Potato = assay: Crop yield of treated potato tubers; settings: potato tubers treated at 500 g per 100 kg seed; harvested at maturity; vs untreated tubers
Procedure: Potato tubers are treated with the composition of the invention containing Imidacloprid, at a rate of 500 g Imidacloprid per 100 kg seed and are planted following procedures which correspond to conditions found in practice. The crop is harvested from the field at maturity. Untreated tubers from the same origin are used for comparison purposes.

[1] = test system: Rice (Orvza sativa L. cv. Nihonbare); assay: Vigor of rice after drench treatment
Procedure: (§1) Plant are grown in a commercially available pathogen-free soil mixture. 2 weeks (eggplants 3 weeks) after planting seedlings are transplanted into 600 ml pots and drench treated with 10 mg Thiamethoxam in 20 ml water per pot. They were fertilised once or twice a week. Up to 10 weeks after treatment, fresh- and dry-weight of shoots and roots and numbers of leaves are determined. Protein content is measured by the method of Bradford (1976, Anal. Biochem., 72, 248-254) with BSA (bovine serum albumin) as standard: Homogenisation of leaf material in liquid N2 in a mortar. Extraction in phosphate buffer (pH 7.5, 0.1M, 2/1 vol/weight). After centrifugation supematant is separated from pellet and stored at −20° C. until protein determination. For comparison of treated and check, mg proteing/g fresh weight is calculated.
(§2) Tables B2 and B3: Differences between treated plants and Check given as factors (e.g. fresh weight of treated/Fresh weight of check). Factors >1 indicate an enhancement of vigor of treated plants. FW: fresh weight; DW: dry weight; Protein ((mg/g treated plant)/(mg/g check))

[2] = test system: Eggplant (Solanum melongena L. cv. Marfa); assay: Vigor of eggplant after drench treatment
Procedure: as §1, §2

Canola = assay: Emergence of canola from treated seed; settings: seed treatment 300 g per 100 kg seed; vs untreated seeds
Procedure: Canola seed is treated with the composition of the invention containing Thiamethoxam, at a rate of 300 g Thiamethoxam per 100 kg seed, and is seeded following procedures which correspond to conditions found in practice. Untreated seeds from the same origin are used for comparison purposes. Emergence (plants per meter) is evaluated. In the case of treated seeds, about 20% more plants per meter emerge that in the case of untreated plants.

In the case of O=[N+]([O-])NC1=NCCN1Cc1ccc(Cl)nc1 [Imidacloprid], the Crop yield (Potato) is reported as “significantly higher”.
CN1COCN(Cc2cnc(Cl)s2)/C1=N\[N+](=O)[O-] [Thiamethoxam] was tested, and the “Protein ((mg/g treated plant)/(mg/g check))” value (“Protein” below) ([1]; week 1, drench 10 mg per pot) was 1.1, the “Root DW (factor treated/check)” value ([1]; week 1, drench 10 mg per pot) was 0.8 and the “Root FW (factor treated/check)” value ([1]; week 1, drench 10 mg per pot) was 1.0. For the same molecule, the “Shoot DW (factor treated/check)” value ([1]; week 1, drench 10 mg per pot) was 1.0, the “Shoot FW (factor treated/check)” value ([1]; week 1, drench 10 mg per pot) was 1.0 and the “Size (factor treated/check)” value ([1]; week 1, drench 10 mg per pot) was 1.0. The “Protein” value ([1]; week 2, drench 10 mg per pot) was 1.0, the “Root DW (factor treated/check)” value ([1]; week 2, drench 10 mg per pot) was 1.1 and the “Root FW (factor treated/check)” value ([1]; week 2, drench 10 mg per pot) was 0.8. For the same molecule, the “Shoot DW (factor treated/check)” value ([1]; week 2, drench 10 mg per pot) was 1.1, the “Shoot FW (factor treated/check)” value ([1]; week 2, drench 10 mg per pot) was 1.0 and the “Size (factor treated/check)” value ([1]; week 2, drench 10 mg per pot) was 1.0. The “Protein” value ([1]; week 3, drench 10 mg per pot) was 1.0, the “Root DW (factor treated/check)” value ([1]; week 3, drench 10 mg per pot) was 1.3 and the “Root FW (factor treated/check)” value ([1]; week 3, drench 10 mg per pot) was 0.6. For the same molecule, the “Shoot DW (factor treated/check)” value ([1]; week 3, drench 10 mg per pot) was 1.3, the “Shoot FW (factor treated/check)” value ([1]; week 3, drench 10 mg per pot) was 1.2 and the “Size (factor treated/check)” value ([1]; week 3, drench 10 mg per pot) was 1.0. The “Protein” value ([1]; week 4, drench 10 mg per pot) was 1.0, the “Root DW (factor treated/check)” value ([1]; week 4, drench 10 mg per pot) was 1.4 and the “Root FW (factor treated/check)” value ([1]; week 4, drench 10 mg per pot) was 1.5. The “Shoot DW (factor treated/check)” value ([1]; week 4, drench 10 mg per pot) was 1.2, the “Shoot FW (factor treated/check)” value ([1]; week 4, drench 10 mg per pot) was 1.3 and the “Size (factor treated/check)” value ([1]; week 4, drench 10 mg per pot) was 1.1. For the same molecule, the “Protein” value ([1]; week 5, drench 10 mg per pot) was 1.0, the “Root DW (factor treated/check)” value ([1]; week 5, drench 10 mg per pot) was 0.9 and the “Root FW (factor treated/check)” value ([1]; week 5, drench 10 mg per pot) was 1.0. The “Shoot DW (factor treated/check)” value ([1]; week 5, drench 10 mg per pot) was 1.1, the “Shoot FW (factor treated/check)” value ([1]; week 5, drench 10 mg per pot) was 1.2 and the “Size (factor treated/check)” value ([1]; week 5, drench 10 mg per pot) was 1.1. For the same molecule, the “Protein” value ([1]; week 6, drench 10 mg per pot) was 1.0, the “Root DW (factor treated/check)” value ([1]; week 6, drench 10 mg per pot) was 1.5 and the “Root FW (factor treated/check)” value ([1]; week 6, drench 10 mg per pot) was 1.6. The “Shoot DW (factor treated/check)” value ([1]; week 6, drench 10 mg per pot) was 1.1, the “Shoot FW (factor treated/check)” value ([1]; week 6, drench 10 mg per pot) was 1.3 and the “Size (factor treated/check)” value ([1]; week 6, drench 10 mg per pot) was 1.2. The “Protein” value ([1]; week 7, drench 10 mg per pot) was 1.1, the “Root DW (factor treated/check)” value ([1]; week 7, drench 10 mg per pot) was 1.3 and the “Root FW (factor treated/check)” value ([1]; week 7, drench 10 mg per pot) was 1.3. The “Shoot DW (factor treated/check)” value ([1]; week 7, drench 10 mg per pot) was 1.2, the “Shoot FW (factor treated/check)” value ([1]; week 7, drench 10 mg per pot) was 1.3 and the “Size (factor treated/check)” value ([1]; week 7, drench 10 mg per pot) was 1.1. The “Protein” value ([1]; week 8, drench 10 mg per pot) was 1.0, the “Root DW (factor treated/check)” value ([1]; week 8, drench 10 mg per pot) was 1.5 and the “Root FW (factor treated/check)” value ([1]; week 8, drench 10 mg per pot) was 1.8. The “Shoot DW (factor treated/check)” value ([1]; week 8, drench 10 mg per pot) was 1.4, the “Shoot FW (factor treated/check)” value ([1]; week 8, drench 10 mg per pot) was 1.4 and the “Size (factor treated/check)” value ([1]; week 8, drench 10 mg per pot) was 1.1. For the same molecule, the “Protein” value ([1]; week 9, drench 10 mg per pot) was 0.9, the “Root DW (factor treated/check)” value ([1]; week 9, drench 10 mg per pot) was 1.0 and the “Root FW (factor treated/check)” value ([1]; week 9, drench 10 mg per pot) was 1.0. For the same molecule, the “Shoot DW (factor treated/check)” value ([1]; week 9, drench 10 mg per pot) was 1.2, the “Shoot FW (factor treated/check)” value ([1]; week 9, drench 10 mg per pot) was 1.2 and the “Size (factor treated/check)” value ([1]; week 9, drench 10 mg per pot) was 1.2. The “Protein” value ([1]; week 10, drench 10 mg per pot) was 0.7, the “Root DW (factor treated/check)” value ([1]; week 10, drench 10 mg per pot) was 2.0 and the “Root FW (factor treated/check)” value ([1]; week 10, drench 10 mg per pot) was 2.0. The “Shoot DW (factor treated/check)” value ([1]; week 10, drench 10 mg per pot) was 1.3, the “Shoot FW (factor treated/check)” value ([1]; week 10, drench 10 mg per pot) was 1.3 and the “Size (factor treated/check)” value ([1]; week 10, drench 10 mg per pot) was 1.3. For the same molecule, the “Protein” value ([2]; week 1, drench 10 mg per pot) was 1.0, the “Root DW (factor treated/check)” value ([2]; week 1, drench 10 mg per pot) was 1.0 and the “Root FW (factor treated/check)” value ([2]; week 1, drench 10 mg per pot) was 1.0. The “Shoot DW (factor treated/check)” value ([2]; week 1, drench 10 mg per pot) was 0.9, the “Shoot FW (factor treated/check)” value ([2]; week 1, drench 10 mg per pot) was 0.9 and the “Size (factor treated/check)” value ([2]; week 1, drench 10 mg per pot) was 1.0. For the same molecule, the “Protein” value ([2]; week 2, drench 10 mg per pot) was 1.1, the “Root DW (factor treated/check)” value ([2]; week 2, drench 10 mg per pot) was 1.2 and the “Root FW (factor treated/check)” value ([2]; week 2, drench 10 mg per pot) was 1.2. For the same molecule, the “Shoot DW (factor treated/check)” value ([2]; week 2, drench 10 mg per pot) was 1.1, the “Shoot FW (factor treated/check)” value ([2]; week 2, drench 10 mg per pot) was 0.7 and the “Size (factor treated/check)” value ([2]; week 2, drench 10 mg per pot) was 1.1. For the same molecule, the “Protein” value ([2]; week 3, drench 10 mg per pot) was 1.0, the “Root DW (factor treated/check)” value ([2]; week 3, drench 10 mg per pot) was 1.1 and the “Root FW (factor treated/check)” value ([2]; week 3, drench 10 mg per pot) was 1.1. For the same molecule, the “Shoot DW (factor treated/check)” value ([2]; week 3, drench 10 mg per pot) was 1.1, the “Shoot FW (factor treated/check)” value ([2]; week 3, drench 10 mg per pot) was 1.2 and the “Size (factor treated/check)” value ([2]; week 3, drench 10 mg per pot) was 1.1. The “Protein” value ([2]; week 4, drench 10 mg per pot) was 1.6, the “Root DW (factor treated/check)” value ([2]; week 4, drench 10 mg per pot) was 1.0 and the “Root FW (factor treated/check)” value ([2]; week 4, drench 10 mg per pot) was 1.0. The “Shoot DW (factor treated/check)” value ([2]; week 4, drench 10 mg per pot) was 1.1, the “Shoot FW (factor treated/check)” value ([2]; week 4, drench 10 mg per pot) was 1.1 and the “Size (factor treated/check)” value ([2]; week 4, drench 10 mg per pot) was 1.0. For the same molecule, the “Leaf No (factor treated/check)” value ([2]; week 5, drench 10 mg per pot) was 1.1, the “Protein” value ([2]; week 5, drench 10 mg per pot) was 1.0 and the “Root DW (factor treated/check)” value ([2]; week 5, drench 10 mg per pot) was 1.0. For the same molecule, the “Root FW (factor treated/check)” value ([2]; week 5, drench 10 mg per pot) was 0.9, the “Shoot DW (factor treated/check)” value ([2]; week 5, drench 10 mg per pot) was 1.1 and the “Shoot FW (factor treated/check)” value ([2]; week 5, drench 10 mg per pot) was 1.0. The “Size (factor treated/check)” value ([2]; week 5, drench 10 mg per pot) was 1.0, the “Leaf No (factor treated/check)” value ([2]; week 6, drench 10 mg per pot) was 1.3 and the “Protein” value ([2]; week 6, drench 10 mg per pot) was 1.1. For the same molecule, the “Root DW (factor treated/check)” value ([2]; week 6, drench 10 mg per pot) was 0.9, the “Root FW (factor treated/check)” value ([2]; week 6, drench 10 mg per pot) was 0.9 and the “Shoot DW (factor treated/check)” value ([2]; week 6, drench 10 mg per pot) was 1.3. The “Shoot FW (factor treated/check)” value ([2]; week 6, drench 10 mg per pot) was 1.3, the “Size (factor treated/check)” value ([2]; week 6, drench 10 mg per pot) was 1.3 and the “Leaf No (factor treated/check)” value ([2]; week 7, drench 10 mg per pot) was 1.3. The “Protein” value ([2]; week 7, drench 10 mg per pot) was 1.4, the “Root DW (factor treated/check)” value ([2]; week 7, drench 10 mg per pot) was 0.7 and the “Root FW (factor treated/check)” value ([2]; week 7, drench 10 mg per pot) was 0.8. The “Shoot DW (factor treated/check)” value ([2]; week 7, drench 10 mg per pot) was 1.1, the “Shoot FW (factor treated/check)” value ([2]; week 7, drench 10 mg per pot) was 1.1 and the “Size (factor treated/check)” value ([2]; week 7, drench 10 mg per pot) was 1.2. For the same molecule, the “Leaf No (factor treated/check)” value ([2]; week 8, drench 10 mg per pot) was 1.2, the “Protein” value ([2]; week 8, drench 10 mg per pot) was 1.4 and the “Root DW (factor treated/check)” value ([2]; week 8, drench 10 mg per pot) was 0.6. The “Root FW (factor treated/check)” value ([2]; week 8, drench 10 mg per pot) was 0.6, the “Shoot DW (factor treated/check)” value ([2]; week 8, drench 10 mg per pot) was 0.9 and the “Shoot FW (factor treated/check)” value ([2]; week 8, drench 10 mg per pot) was 0.7. For the same molecule, the “Size (factor treated/check)” value ([2]; week 8, drench 10 mg per pot) was 1.2, the “Leaf No (factor treated/check)” value ([2]; week 9, drench 10 mg per pot) was 1.6 and the “Protein” value ([2]; week 9, drench 10 mg per pot) was 2.5. For the same molecule, the “Root DW (factor treated/check)” value ([2]; week 9, drench 10 mg per pot) was 1.1, the “Root FW (factor treated/check)” value ([2]; week 9, drench 10 mg per pot) was 0.9 and the “Shoot DW (factor treated/check)” value ([2]; week 9, drench 10 mg per pot) was 1.1. For the same molecule, the “Shoot FW (factor treated/check)” value ([2]; week 9, drench 10 mg per pot) was 0.7, the “Size (factor treated/check)” value ([2]; week 9, drench 10 mg per pot) was 1.4 and the “Leaf No (factor treated/check)” value ([2]; week 10, drench 10 mg per pot) was 1.4. The “Protein” value ([2]; week 10, drench 10 mg per pot) was 1.3, the “Root DW (factor treated/check)” value ([2]; week 10, drench 10 mg per pot) was 1.3 and the “Root FW (factor treated/check)” value ([2]; week 10, drench 10 mg per pot) was 1.1. The “Shoot DW (factor treated/check)” value ([2]; week 10, drench 10 mg per pot) was 1.1, the “Shoot FW (factor treated/check)” value ([2]; week 10, drench 10 mg per pot) was 1.1 and the “Size (factor treated/check)” value ([2]; week 10, drench 10 mg per pot) was 1.4. For the same molecule, the “Emergence (plants per meter), more plants than untreated” value (Canola) was “about 20%”.
